Reference: PubChem BioAssay (NCI)
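Values below derive from 48-hour exposures of cells grown in 96-well plates, with endpoints linearly interpolated between the two concentrations bracketing the appropriate inhibition level. Abbreviation: GI50, concentration required for 50% inhibition of growth. At the TGI there is no net growth.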

Experiments:
Experiment in all cases: NCI-60 cell line screen, 48 h
ACHN renal = tested on: ACHN renal
NCI/ADR-RES ovarian = tested on: NCI/ADR-RES ovarian
IGROV1 ovarian = tested on: IGROV1 ovarian
PC-3 prostate = tested on: PC-3 prostate
TK-10 renal = tested on: TK-10 renal
HL-60(TB) leukemia = tested on: HL-60(TB) leukemia
A498 renal = tested on: A498 renal
HOP-62 NSCLC = tested on: HOP-62 NSCLC
K-562 leukemia = tested on: K-562 leukemia
OVCAR-3 ovarian = tested on: OVCAR-3 ovarian
HOP-92 NSCLC = tested on: HOP-92 NSCLC
SR leukemia = tested on: SR leukemia
BT-549 breast = tested on: BT-549 breast
UACC-257 melanoma = tested on: UACC-257 melanoma
T-47D breast = tested on: T-47D breast
NCI-H226 lung = tested on: NCI-H226 lung
A549 NSCLC = tested on: A549 NSCLC
OVCAR-4 ovarian = tested on: OVCAR-4 ovarian
M14 melanoma = tested on: M14 melanoma
CCRF-CEM leukemia = tested on: CCRF-CEM leukemia
HT29 colon = tested on: HT29 colon
UO-31 renal = tested on: UO-31 renal
RPMI-8226 leukemia = tested on: RPMI-8226 leukemia
OVCAR-5 ovarian = tested on: OVCAR-5 ovarian
MCF7 breast = tested on: MCF7 breast
NCI-H522 lung = tested on: NCI-H522 lung
RXF 393 renal = tested on: RXF 393 renal
U251 CNS = tested on: U251 CNS
SN12C renal = tested on: SN12C renal
DU-145 prostate = tested on: DU-145 prostate
EKVX NSCLC = tested on: EKVX NSCLC
LOX IMVI melanoma = tested on: LOX IMVI melanoma
COLO 205 colon = tested on: COLO 205 colon
SK-MEL-28 melanoma = tested on: SK-MEL-28 melanoma
NCI-H460 lung = tested on: NCI-H460 lung
MDA-MB-231 breast = tested on: MDA-MB-231 breast
MALME-3M melanoma = tested on: MALME-3M melanoma
786-0 renal = tested on: 786-0 renal
NCI-H23 lung = tested on: NCI-H23 lung
HCT-116 colon = tested on: HCT-116 colon
MDA-MB-435 = tested on: MDA-MB-435
OVCAR-8 ovarian = tested on: OVCAR-8 ovarian
SK-MEL-5 melanoma = tested on: SK-MEL-5 melanoma
SK-OV-3 ovarian = tested on: SK-OV-3 ovarian
MOLT-4 leukemia = tested on: MOLT-4 leukemia
KM12 colon = tested on: KM12 colon
HCT-15 colon = tested on: HCT-15 colon
SW-620 colon = tested on: SW-620 colon
SNB-19 CNS = tested on: SNB-19 CNS
SNB-75 CNS = tested on: SNB-75 CNS
UACC-62 melanoma = tested on: UACC-62 melanoma
HCC-2998 colon = tested on: HCC-2998 colon
SF-295 CNS = tested on: SF-295 CNS
SF-539 CNS = tested on: SF-539 CNS
SK-MEL-2 melanoma = tested on: SK-MEL-2 melanoma
HS 578T breast = tested on: HS 578T breast
SF-268 CNS = tested on: SF-268 CNS

SMILES: CCN1CCC(Oc2c(C#N)ncc3[nH]c4ncccc4c23)CC1
- GI50 (ACHN renal): 0.466 µM
- TGI (ACHN renal): > 50 µM
- GI50 (NCI/ADR-RES ovarian): 2.78 µM
- TGI (NCI/ADR-RES ovarian): > 50 µM
- GI50 (IGROV1 ovarian): 15.6 µM
- TGI (IGROV1 ovarian): > 50 µM
- GI50 (PC-3 prostate): 21 µM
- TGI (PC-3 prostate): > 50 µM
- GI50 (TK-10 renal): 5.21 µM
- TGI (TK-10 renal): 41.7 µM
- GI50 (HL-60(TB) leukemia): 2.9 µM
- TGI (HL-60(TB) leukemia): 17.5 µM
- GI50 (A498 renal): 0.296 µM
- TGI (A498 renal): 10.5 µM
- GI50 (HOP-62 NSCLC): 13.2 µM
- TGI (HOP-62 NSCLC): > 50 µM
- GI50 (K-562 leukemia): 1.75 µM
- TGI (K-562 leukemia): > 50 µM
- GI50 (OVCAR-3 ovarian): 2.55 µM
- TGI (OVCAR-3 ovarian): > 50 µM
- GI50 (HOP-92 NSCLC): > 50 µM
- TGI (HOP-92 NSCLC): > 50 µM
- GI50 (SR leukemia): 1.32 µM
- TGI (SR leukemia): 22.3 µM
- GI50 (BT-549 breast): 1.96 µM
- TGI (BT-549 breast): 21 µM
- GI50 (UACC-257 melanoma): 19.9 µM
- TGI (UACC-257 melanoma): > 50 µM
- GI50 (T-47D breast): 26 µM
- TGI (T-47D breast): > 50 µM
- GI50 (NCI-H226 lung): 16.3 µM
- TGI (NCI-H226 lung): > 50 µM
- GI50 (A549 NSCLC): 14.1 µM
- TGI (A549 NSCLC): > 50 µM
- GI50 (OVCAR-4 ovarian): 7.88 µM
- TGI (OVCAR-4 ovarian): > 50 µM
- GI50 (M14 melanoma): 0.357 µM
- TGI (M14 melanoma): > 50 µM
- GI50 (CCRF-CEM leukemia): 1.84 µM
- TGI (CCRF-CEM leukemia): > 50 µM
- GI50 (HT29 colon): 10.2 µM
- TGI (HT29 colon): > 50 µM
- GI50 (UO-31 renal): 3.94 µM
- TGI (UO-31 renal): > 50 µM
- GI50 (RPMI-8226 leukemia): 11 µM
- TGI (RPMI-8226 leukemia): > 50 µM
- GI50 (OVCAR-5 ovarian): 19.3 µM
- TGI (OVCAR-5 ovarian): > 50 µM
- GI50 (MCF7 breast): 0.403 µM
- TGI (MCF7 breast): > 50 µM
- GI50 (NCI-H522 lung): 15 µM
- TGI (NCI-H522 lung): > 50 µM
- GI50 (RXF 393 renal): 0.559 µM
- TGI (RXF 393 renal): 4.16 µM
- GI50 (U251 CNS): 15.7 µM
- TGI (U251 CNS): > 50 µM
- GI50 (SN12C renal): 14.2 µM
- TGI (SN12C renal): > 50 µM
- GI50 (DU-145 prostate): 10.9 µM
- TGI (DU-145 prostate): > 50 µM
- GI50 (EKVX NSCLC): 14.5 µM
- TGI (EKVX NSCLC): > 50 µM
- GI50 (LOX IMVI melanoma): 5.72 µM
- TGI (LOX IMVI melanoma): > 50 µM
- GI50 (COLO 205 colon): 5.72 µM
- TGI (COLO 205 colon): 19.5 µM
- GI50 (SK-MEL-28 melanoma): 16.2 µM
- TGI (SK-MEL-28 melanoma): > 50 µM
- GI50 (NCI-H460 lung): 7.33 µM
- TGI (NCI-H460 lung): > 50 µM
- GI50 (MDA-MB-231 breast): 21.5 µM
- TGI (MDA-MB-231 breast): > 50 µM
- GI50 (MALME-3M melanoma): 22.9 µM
- TGI (MALME-3M melanoma): > 50 µM
- GI50 (786-0 renal): 1.71 µM
- TGI (786-0 renal): > 50 µM
- GI50 (NCI-H23 lung): 3.25 µM
- TGI (NCI-H23 lung): > 50 µM
- GI50 (HCT-116 colon): 7.2 µM
- TGI (HCT-116 colon): > 50 µM
- GI50 (MDA-MB-435): 1.88 µM
- TGI (MDA-MB-435): > 50 µM
- GI50 (OVCAR-8 ovarian): 4.77 µM
- TGI (OVCAR-8 ovarian): > 50 µM
- GI50 (SK-MEL-5 melanoma): 7.12 µM
- TGI (SK-MEL-5 melanoma): > 50 µM
- GI50 (SK-OV-3 ovarian): 3.99 µM
- TGI (SK-OV-3 ovarian): > 50 µM
- GI50 (MOLT-4 leukemia): 1.67 µM
- TGI (MOLT-4 leukemia): 21.2 µM
- GI50 (KM12 colon): 2.83 µM
- TGI (KM12 colon): > 50 µM
- GI50 (HCT-15 colon): 9.35 µM
- TGI (HCT-15 colon): > 50 µM
- GI50 (SW-620 colon): 12.2 µM
- TGI (SW-620 colon): > 50 µM
- GI50 (SNB-19 CNS): 14.7 µM
- TGI (SNB-19 CNS): > 50 µM
- GI50 (SNB-75 CNS): 12.9 µM
- TGI (SNB-75 CNS): 29.8 µM
- GI50 (UACC-62 melanoma): 18.1 µM
- TGI (UACC-62 melanoma): > 50 µM
- GI50 (HCC-2998 colon): 20.3 µM
- TGI (HCC-2998 colon): > 50 µM
- GI50 (SF-295 CNS): 2.04 µM
- TGI (SF-295 CNS): > 50 µM
- GI50 (SF-539 CNS): 1.34 µM
- TGI (SF-539 CNS): 26.2 µM
- GI50 (SK-MEL-2 melanoma): 2.48 µM
- TGI (SK-MEL-2 melanoma): 26.9 µM
- GI50 (HS 578T breast): 13.1 µM
- TGI (HS 578T breast): > 50 µM
- GI50 (SF-268 CNS): 16.2 µM
- TGI (SF-268 CNS): > 50 µM
